This experiment deals with T1, human GluR4B receptor (Homo sapiens, UniProt P48058).
T1 construct: expressed in transfected cells; host or cells: HEK293
The experiment is described as follows: potentiation of agonist-induced excitability of GluR4B expressed in HEK 293 cells. Format: cell-based. To be noted: human GluR4B receptor expressed in HEK 293 cells. The text has this: The ability of compounds of formula I to potentiate glutamate receptor-mediated response may be determined using fluorescent calcium indicator dyes (Molecular Probes, Eugene, Oregon, Fluo-3) and by measuring glutamate-evoked […] of calcium into GluR4 transfected HEK293 cells, as described in more detail below.
In one test, 96 well plates containing confluent monolayers of HEK cells stably expressing human GluR4B (obtained as described in European Patent Application Publication Number EP-A1-583917) are prepared. The tissue culture medium in the wells is then discarded, and the wells are each washed once with 200 μl of buffer (glucose, 10 mM, sodium chloride, 138 mM, magnesium chloride, 1 mM, potassium chloride, 5 mM, calcium chloride, 5 mM, N-[2-hydroxyethyl]-piperazine-N-[2-ethanesulfonic acid], 10 mM, to pH 7.1 to 7.3). […]
Each test is then performed as follows. […] A second fluorescent reading is taken after 5 minutes incubation. 15 μl of 400 μM glutamate solution is then added to each well (final glutamate concentration 100 μM), and a third reading is taken. The activities of test compounds and cyclothiazide solutions are determined by subtracting the second from the third reading (fluorescence due to addition of glutamate in the presence or absence of test compound or cyclothiazide) and are expressed relative to enhance fluorescence produced by 100 μM cyclothiazide.

SMILES strings stand for the structures.

Consider one molecule from patent US6387954B1, “Alkenyl sulphonamide derivatives” (Eli Lilly and Company, priority 1998, dated 2002).

T1 sequence (P48058 21-902): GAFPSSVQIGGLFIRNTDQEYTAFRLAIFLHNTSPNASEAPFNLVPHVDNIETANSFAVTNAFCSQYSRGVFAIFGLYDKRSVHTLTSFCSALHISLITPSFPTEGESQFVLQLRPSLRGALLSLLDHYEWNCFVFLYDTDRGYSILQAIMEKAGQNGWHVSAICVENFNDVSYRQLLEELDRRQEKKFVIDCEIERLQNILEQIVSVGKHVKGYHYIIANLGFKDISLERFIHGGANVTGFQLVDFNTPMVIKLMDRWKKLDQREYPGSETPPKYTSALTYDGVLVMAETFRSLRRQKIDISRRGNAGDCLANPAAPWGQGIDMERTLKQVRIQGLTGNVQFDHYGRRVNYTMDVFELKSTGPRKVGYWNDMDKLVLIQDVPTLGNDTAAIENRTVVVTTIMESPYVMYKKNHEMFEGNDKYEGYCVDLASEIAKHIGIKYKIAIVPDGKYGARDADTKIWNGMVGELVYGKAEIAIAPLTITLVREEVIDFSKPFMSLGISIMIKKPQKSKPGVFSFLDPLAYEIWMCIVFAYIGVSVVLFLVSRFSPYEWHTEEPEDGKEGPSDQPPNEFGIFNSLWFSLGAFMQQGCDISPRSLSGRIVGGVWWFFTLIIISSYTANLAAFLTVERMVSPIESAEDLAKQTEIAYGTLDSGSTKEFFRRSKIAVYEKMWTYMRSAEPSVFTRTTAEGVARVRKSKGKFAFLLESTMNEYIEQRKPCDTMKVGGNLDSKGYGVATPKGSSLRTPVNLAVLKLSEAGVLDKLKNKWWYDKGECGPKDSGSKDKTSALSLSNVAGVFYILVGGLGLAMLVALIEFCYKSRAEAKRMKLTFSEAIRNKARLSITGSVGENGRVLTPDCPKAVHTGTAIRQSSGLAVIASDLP

With `NS(=O)(=O)c1cc2c(cc1Cl)NC(C1CC3C=CC1C3)NS2(=O)=O` (stereo not shown) [cyclothiazide], the “potentiation of agonist-induced excitability” value was “potentiate agonist-induced excitability”.
